Entries after “also recorded” stand apart in the source; their conditions may differ. Where a SMILES comes first, the peptide text is derived from it. [ ]: non-standard residue; d: D form. The star is where a group is joined. Cbz = O=C(OCc1ccccc1)*
What was measured:
Format in all cases: biochemical
Cathepsin Y [1] = target: T1, Cathepsin Y (Homo sapiens, UniProt Q9UBR2); assay: Inhibition of Cathepsin Y carboxypeptidase activity (o-phthalaldehyde fluorescence, acetylated EGYYGNYGV substrate); settings: pH 4.5
T1 construct: source of the purified preparation not in excerpts; cDNA from human HS683 cells, expressed in 293 cells
Method: (§1) This is accomplished by reacting with the reagent o-phthalaldehyde in an alkaline solution in the presence of 2-mercaptoethanol (Simons, et al., JACS, 98:7098-7099, (1976)).
(§2) A standard curve was constructed by incubating varying concentrations of valine (0-20 μM) in 0.25M sodium borate, pH 10, containing 0.05% 2-mercaptoethanol and 60 μg/mL o-phthalaldehyde, in individual wells of a 96 well microtiter plate. The resulting fluorescence is read in a plate reading Cytofluor (ex 340, em 460 nm). There is a linear increase in the signal proportional to the amount of free valine present (FIG. 7).
(§3) In order to determine the pH optimum of the enzyme, reaction mixtures were set up with enzyme and substrate (0.2 mg/mL) in a total reaction volume of 0.1 mL) in individual wells of 96-well microtiter plates, in 20 mM sodium acetate buffers at different pHs, with 0.1% 2-mercaptoethanol present. Control wells were set identically except for the […] of enzyme. At various time-points after incubation at room temperature, the reactions were quenched by the addition of an equal volume of 0.45M sodium borate, pH 10, with 0.25 mg/mL o-phthalaldehyde, and the fluorescence measured. In the absence of added enzyme, no measurable fluorescence is generated above background, even with extended incubations. In the presence of enzyme, there is a time-dependent increase in fluorescence.
Using this assay at pH 4.5, the ability of a number of compounds to inhibit the activity of Cathepsin Y was tested, by adding the desired concentration of the inhibitor in the incubation mixture along with enzyme and substrate, and measuring the decrease in fluorescence (if any) relative to enzyme control.

[2] = pH optimum of Cathepsin Y carboxypeptidase activity; settings: 20 mM sodium acetate buffers, room temperature
Method: as §1, §2, §3

Cathepsin Y [3] = target: T1, Cathepsin Y; assay: Cleavage of synthetic oligopeptides by purified Cathepsin Y (RP-HPLC, amino-acid analysis); settings: for cleavage product(s) of parent oligopeptide with Cathepsin Y: 50 μg/mL peptide, pH 4.5 or 5.5, 1 hour, 37° C
Method: In an effort to identify whether the enzyme has other proteolytic activity, a number of randomly selected synthetic oligopeptides were incubated with purified Cathepsin Y at pH 5.5 or 4.5. Specifically, purified Cathepsin Y was incubated with the selected synthetic oligopeptides (50 μg/mL) at either pH 4.5 or pH 5.5, for 1 hour at 37° C. Samples were quenched by the addition of trifluoroacetic acid to 1% final concentration, then analyzed by reverse phase HPLC on a Vydac C18 column, using a gradient of increasing acetonitrile in 0.1% trifluoroacetic acid. Individual peaks (parent and new product(s)) were collected, then analyzed by acid hydrolysis followed by amino-acid analysis.

APP = assay: Proteolytic activity of purified Cathepsin Y on APP preparations; settings: purified recombinant APP constructs and membrane-bound full-length APP
[4] = Activity of Cathepsin Y on synthetic substrates used for assaying Cathepsin B, L or S
[5] = synthetic oligopeptides, pH 4.5 or 5.5

T1 sequence (Q9UBR2 62-303): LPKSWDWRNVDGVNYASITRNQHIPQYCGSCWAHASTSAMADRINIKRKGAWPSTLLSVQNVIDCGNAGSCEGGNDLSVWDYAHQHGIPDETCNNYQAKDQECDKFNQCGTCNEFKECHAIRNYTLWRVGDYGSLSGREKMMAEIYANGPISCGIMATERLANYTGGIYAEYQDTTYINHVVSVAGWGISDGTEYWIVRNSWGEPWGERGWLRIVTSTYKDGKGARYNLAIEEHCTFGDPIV

Molecule | inhibition of Cathepsin Y activity (Cathepsin Y [1]) | cleavage product(s) of parent oligopeptide with Cathepsin Y (Cathepsin Y [3]) | also measured
O=C[C@H](Cc1ccccc1)NC(=O)C(c1ccccc1)c1ccccc1 [Example 3] | indicated inhibition of Cathepsin Y activity |  | 
O=C[C@H](Cc1ccccc1)NC(=O)CCCCc1ccccc1 [Example 4] | indicated inhibition of Cathepsin Y activity |  | 
O=C[C@H](Cc1ccccc1)NC(=O)C(=Cc1ccccc1)c1ccccc1 [Example 7] | indicated inhibition of Cathepsin Y activity |  | 
CC(C)[C@H](NC(=O)OCc1ccccc1)C(=O)N[C@H](C=O)Cc1ccccc1 [Example 15] (Cbz-Val-Phe-aldehyde) | indicated inhibition of Cathepsin Y activity |  | 
CC(C)[C@@H](NC(=O)OCc1ccccc1)C(=O)N[C@H](C=O)Cc1ccccc1 [Example 24] (Cbz-[dV]-Phe-aldehyde) | indicated inhibition of Cathepsin Y activity |  | 
O=C[C@H](Cc1ccc(OCc2ccccc2)cc1)NC(=O)C(c1ccccc1)c1ccccc1 [Example 45] | indicated inhibition of Cathepsin Y activity |  | 
CSCC[C@@H](C=O)NC(=O)[C@@H](NC(=O)OCc1ccccc1)C(C)C [Example 47] (Cbz-Val-Met-aldehyde) | indicated inhibition of Cathepsin Y activity |  | 
O=C[C@H](Cc1ccccc1)NC(=O)Cc1ccccc1 [Example 59] | indicated inhibition of Cathepsin Y activity |  | 
O=C[C@H](Cc1ccccc1)NC(=O)C1c2ccccc2Oc2ccccc21 [Example 64] | indicated inhibition of Cathepsin Y activity |  | 
O=C[C@H](Cc1ccccc1)NC(=O)N(c1ccccc1)c1ccccc1 [Example 75] | indicated inhibition of Cathepsin Y activity |  | 
Cathepsin Y: novel carboxypeptidase having a molecular weight of approximately 31 kD and the amino acid sequence set forth in SEQ ID No. 3 |  |  | pH optimum for carboxypeptidase activity [2]: about 4.5; endopeptidase or aminopeptidase activity (Cathepsin Y [3]; [5]): No evidence of any endopeptidase or aminopeptidase activity; predominant proteolytic activity (Cathepsin Y [3]; [5]): carboxypeptidase activity; effect on various APP preparations (APP): without effect; activity with known synthetic substrates for Cathepsin B, L or S [4]: No significant activity
EGYYGNYGV |  | EGYYGNYGV | 
EGYYGNYGVYA |  | EGYYGNYGVY; also recorded: EGYYGNYGV | 
FFDEPNPGVTIY |  | FFDEPNPGVT | 
LFYDQSPTATI |  | LFYDQSPTAT; also recorded: LFYDQSPTA; also recorded: LFYDQSPT | 
YKRDMVGGVVIA |  | YKRDMVGGVVI; also recorded: YKRDMVGGVV | 

Reference: US5783434A, “Cathepsin and methods and compositions for inhibition thereof” (priority 1995, dated 1998)
